SMILES strings stand for the structures.

This data set is described as follows: gradient 5% acetonitrile 3 min, to 50% in 2 min, to 85% in 15 min, held 3 min, 100 µL/min. As to conditions: column: Zorbax Extend-C18 2.1 x 50 mm; eluents: water / acetonitrile, 0.1% formic acid. In outline: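 The system's dead and dwell volumes were 40 μL and 900 μL, with a Zorbax Extend-C18 column (2.1 × 50 mm, 1.8 μm) run at 100 μL/min in water and acetonitrile containing 0.1% formic acid each. Pure standards were analyzed in mixtures of ~100 molecules by HPLC–quadrupole time-of-flight mass spectrometry in positive and negative ionization mode. Retention time was assigned from computationally picked, manually inspected adduct peaks.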
`Cc1cccc(CN2C(=O)CN(S(C)(=O)=O)CC2(C)C(=O)NCc2ccc(Cl)cc2)c1` (centres undefined): the RP-LC retention time came out at 886 s.
The molecule `COc1ccc2c(c1)C=C(C(=O)NCC(=O)c1cccs1)C=CO2` showed an RP-LC retention time of 879 s.
Regarding `COc1ccccc1CCC(=O)N1CCN(c2cc(-c3cccs3)[nH]n2)CC1`, the RP-LC retention time came to 838 s.
Molecule `O=C(Cc1cccc2ccccc12)Nc1cc(-c2ccccn2)no1` showed an RP-LC retention time of 878 s.
`O=C(NCc1csc(C2CCN(C(=O)Cc3ccc(Cl)cc3)CC2)n1)C1CC1`: the RP-LC retention time amounted to 747 s.
Take `Fc1ccc(-c2nnc(Cc3nc(-c4ccccc4Cl)no3)o2)cc1`: the RP-LC retention time is 995 s.
As to `COC(=O)c1cccc(N2C=C(C#N)S(=O)(=O)c3cc(F)ccc32)c1`, the RP-LC retention time amounted to 872 s.
For the molecule `CC(C)CN1CCCn2ccnc2C1C1CCN(C(=O)C(C)C)CC1` (centres undefined), the RP-LC retention time was determined as 587 s.
Take `CCc1nc2cc(N3CCCC(C(=O)NC4CC4)C3)cnc2nc1CC` (centres undefined): the RP-LC retention time is 696 s.
In turn, `COc1cc(OC)c(OC)cc1CC1C(=O)Nc2ccccc21` (centres undefined) returned an RP-LC retention time of 770 s.
For the molecule `Cc1nn(C)c(C)c1S(=O)(=O)N1CC=C(c2cn(C)c3ncccc23)CC1`, the RP-LC retention time is 754 s.
The result for `COc1ccc2c(c1)-c1nc(NC(=O)c3ccccc3C)sc1CC2` reads 1130 s; that for `O=C(Cc1cccc(Cl)c1)N1CCc2cc(-c3ccno3)ccc21`, 1020 s.
As to `O=C(NCc1ccccc1)C1CCN(S(=O)(=O)c2cc(C(=O)N3CCCCCC3)cs2)CC1`, the RP-LC retention time is 866 s.
`CCn1cc(S(=O)(=O)N2CC(N(C)Cc3cccnc3)C2)cn1` had an RP-LC retention time of 565 s.
On to `COc1ccc(-c2ccnc3nc(C(C)C)nn23)cc1`, for which the RP-LC retention time was 845 s.
The same measure for `CC(C)NC(=O)C1(c2ccc(NC(=O)C(C)C)cc2)CCCCC1`: 851 s; for `O=C(Nc1ccc2c(c1)C(=O)Nc1ccccc1O2)c1ccc2nsnc2c1`: 773 s; for `CC(C)NC(=O)N1C[C@@H]2CCCN3CCC[C@@H]([C@H]23)[C@H]1CCCC(=O)NCC1CC1`: 578 s.
`CC1CCCN(c2nccn3c(=O)n(CC(=O)Nc4ccc(Br)cc4F)nc23)C1` (centres undefined) returned an RP-LC retention time of 911 s.
`CCN(CC)C(=O)C1CCCN(C(=O)c2nn(C)c3c2CN(C(=O)c2ccco2)CC3)C1` (centres undefined) returned an RP-LC retention time of 658 s.
Molecule `Cc1sc(-c2noc(C(C)C)n2)cc1S(=O)(=O)N1CCC(C(=O)NC2CCCCCC2)CC1` registered an RP-LC retention time of 1140 s.
The same measure for `CCN1CCn2cc(S(=O)(=O)Nc3cccc(C)c3)cc2C1=O`: 736 s; for `O=C(CCC(=O)N1Cc2cccn2-c2ccccc21)NCc1cccc(Cl)c1`: 957 s; for `O=C(N[C@H]1C[C@@H]2C[C@H]1CN2C(=O)NCc1ccco1)c1ccccc1`: 652 s.
`COc1ccc2[nH]cc(CCNC(=O)c3cc(-c4ccccn4)nc4ccccc34)c2c1` returned an RP-LC retention time of 814 s.
With `CN(C)CCn1nnc2cc(-c3noc(-c4cccc(C#N)c4)n3)ccc21`, the RP-LC retention time is 633 s.
On to `CCC(C)n1c(=O)c2ccccc2n(Cc2nc(-c3cc(OC)cc(OC)c3)no2)c1=O` (centres undefined), for which the RP-LC retention time was found to be 1180 s.
The same measure for `Cc1cc(C)cc(NC(=O)Cn2c(=O)nc(N3CCCC(C)C3)c3ccccc32)c1` (centres undefined): 913 s.
In turn, `CN(CC1CCOCC1)C(=O)NCc1cccc(F)c1` showed an RP-LC retention time of 684 s.
In turn, `Cc1cccc(-c2nc3ccccn3c2NC(=O)Nc2ccccc2F)c1` returned an RP-LC retention time of 695 s.
Turning to `O=C(NCc1ccc2[nH]c3c(c2c1)CCCC3)C1CC1`, the RP-LC retention time came out at 735 s.
Turning to `C[C@H]1CN(C(=O)c2ccc3ccccc3n2)C[C@@H]1c1nc(-c2ccncc2)no1`, the RP-LC retention time came out at 830 s.
Take `O=C(N[C@H]1C[C@@H]2C[C@H]1N(C(=O)c1ccccc1Cl)C2)c1cccnc1`: the RP-LC retention time came out at 602 s.
The result for `O=C(c1nc2ccccn2c1-c1ccc(Cl)cc1)N1CCCC1` reads 712 s; that for `COc1ccc(OC)c(CNC(=O)Cc2nnc(-c3cccc(Br)c3)o2)c1`, 796 s; that for `CCC(=O)NC1Cc2ccccc2C(c2ccccc2)C1` (centres undefined), 997 s.
For `Cc1cnc(C)n1CC1CCN(S(=O)(=O)Cc2ccccc2)C1` (centres undefined), the RP-LC retention time was determined as 618 s.
The result for `Cc1ccc(NC(=O)Nc2nccn(-c3cccc(Cl)c3)c2=O)cc1C` reads 1090 s.
The same measure for `Cc1nc([C@@H]2CCCN2C(=O)CCc2ccccc2)n[nH]1`: 634 s; for `Cc1ccccc1-n1c(=O)c2sccc2n(Cc2nc(-c3ccc(Br)cc3)no2)c1=O`: 1120 s.
The same measure for `Cc1ccc(S(=O)(=O)n2c(N)nc3ccccc32)cc1`: 825 s; for `COc1cc2c3cc1Oc1c(OC)c(OC)cc4c1C(Cc1ccc(cc1)Oc1cc(ccc1O)CC3N(C)CC2)N(C)CC4` (centres undefined): 579 s.
`Cc1ccccc1-c1nnc(CSc2nnc(NC(=O)CC3CCCCC3)s2)o1` had an RP-LC retention time of 1080 s.
In turn, `O=C(CN1C(=O)C(C(=O)N2CCCC2)Sc2ccccc21)NC1CCN(Cc2ccccc2)CC1` (centres undefined) registered an RP-LC retention time of 663 s.
Molecule `CCn1nnc2cc(-c3noc(C4CC(=O)N(c5ccc(C)c(C)c5)C4)n3)ccc21` (centres undefined) had an RP-LC retention time of 953 s.
The molecule `COCCNC(=O)C1CCN(C(=O)c2ncn3c2COC(c2ccc(OC)cc2)C3)CC1` (centres undefined) came in with an RP-LC retention time of 658 s.
On to `Cc1ccc(S(=O)(=O)N2CCN(CCc3cn(C)c4ncccc34)CC2)cc1C`, for which the RP-LC retention time came out at 656 s.
Take `Cc1cc(NC(=O)c2ccccc2C(F)(F)F)sn1`: the RP-LC retention time was 713 s.
Turning to `O=S(=O)(NCC1CCN(Cc2cccs2)CC1)c1cc(F)ccc1F`, the RP-LC retention time stood at 562 s.
With `Cc1ccc(CN2CC(Oc3ccc(-c4noc(-c5ccncc5)n4)cc3)C2)o1`, the RP-LC retention time came to 681 s.
The same measure for `O=C(Nc1nc(-c2ccc([N+](=O)[O-])cc2)cs1)c1ccc(COc2c(F)c(F)cc(F)c2F)o1`: 1190 s; for `O=C(NC1CCN(c2ccccc2)C1=O)c1ccc(Br)o1` (centres undefined): 773 s; for `CCn1nnc2ccc(-c3noc(-c4ccc(OC)cc4)n3)cc21`: 1030 s.
The result for `O=C(Oc1cccnc1)c1cn(-c2ccc(Cl)cc2)c(=O)c2ccccc12` reads 947 s; that for `COCCOc1ccc(N2CCN(CCn3ncc4c3nc(N)n3nc(-c5ccco5)nc43)CC2)cc1`, 665 s; that for `CCOC(=O)c1c(S(=O)(=O)N2CCC(C(=O)Nc3cccc(SC)c3)CC2)c(C)n(C)c1C`, 907 s.
Molecule `CCN1CCN(CCCNC(=O)Cn2c3ccccc3c3cnn(C)c(=O)c32)CC1` yielded an RP-LC retention time of 560 s.
On to `CCOC(=O)c1ccc(NC(=O)N2CCC(n3cnc4cccnc43)CC2)cc1`, for which the RP-LC retention time was determined as 674 s.
Consider `CN(C)c1cccc(C(=O)N2CCC3(CC2)N=C(c2ccc(Br)cc2)NO3)c1`, for which the RP-LC retention time was 867 s.
For the molecule `O=C(CCCNC(=O)c1cc(-c2ccco2)on1)Nc1cccc2cccnc12`, the RP-LC retention time was determined as 805 s.
As to `Cc1c(Cl)cccc1NC(=O)C1CCCN(c2ccc(-n3cccn3)nn2)C1` (centres undefined), the RP-LC retention time is 784 s.
The result for `O=C1CC(c2noc(-c3ccccc3F)n2)CN1c1ccc(Cl)cc1` (centres undefined) reads 1010 s.
The molecule `O=C(O)c1nnn(-c2cccc(F)c2)c1-c1cccnc1` came in with an RP-LC retention time of 614 s.
`COc1ccc(-c2ncc3c(n2)CCN(S(=O)(=O)c2cccc(F)c2)C3)cc1` came in with an RP-LC retention time of 1060 s.
For `Cc1noc([C@@H]2CN(C(=O)Cc3c(C)noc3C)C[C@H]2C(N)=O)n1`, the RP-LC retention time was determined as 593 s.
On to `O=c1ccn(-c2ccc(Cl)cc2)nc1-c1nc(-c2ccc(F)c(Br)c2)no1`, for which the RP-LC retention time was determined as 1080 s.
Take `CN1c2cc(C(=O)NCCCc3ccccc3)ccc2C(=O)N2CCCCC21` (centres undefined): the RP-LC retention time was 885 s.
The same measure for `CC(C)c1nnc(-c2coc(S(=O)(=O)N3CCN(c4ccccn4)CC3)c2)o1`: 657 s; for `COc1ccc(C(=O)Nc2cc(-c3ccccn3)no2)cc1`: 784 s; for `CCN1CCN(CCCNC(=O)c2cc(-c3cccnc3)nc3ccc(Br)cc23)CC1`: 581 s.
The same measure for `CCn1ccc(C(=O)N2CCCn3cc(-c4cccc(C#N)c4)nc32)n1`: 639 s; for `O=C1NCCCCCN(Cc2ccc(F)cc2F)[C@H]2CCC[C@@H]12`: 623 s.
Molecule `Cc1cccn2c(=O)cc(CN(C)Cc3ccc(Cl)cc3)nc12` returned an RP-LC retention time of 629 s.
In turn, `COc1ccc(C2CC(=O)N(c3ccc(F)cc3F)C(=O)C2)cc1OC` displayed an RP-LC retention time of 870 s.
For `CCOc1ccc(NC(=O)c2oc3cc(C)c(Cl)cc3c2C)c2cccnc12`, the RP-LC retention time was 893 s.
`Cc1ccc2c(c1)N(Cc1ccc(F)cc1)N=C(C(=O)N1CCOCC1)S2(=O)=O` registered an RP-LC retention time of 839 s.
For `Cc1noc(C)c1-c1ccc(S(=O)(=O)Nc2cccc(F)c2)cc1`, the RP-LC retention time came to 916 s.
Consider `CCOC(=O)c1noc2ncnc(N3CCN(c4ccccc4OC)CC3)c12`, for which the RP-LC retention time is 970 s.

Source of the values: the METLIN SMRT retention time set (Domingo-Almenara et al. 2019).
